# Measured values: patent US20120129842A1, “BISTHIAZOLE INHIBITORS OF PRO-MATRIX METALLOPROTEINASE ACTIVATION” (priority 2010, published 2012)
# Structures can show the parent of a compound that is named as a salt.
# Legend:
# [1] = target: T1, proMMP9(20-445;ΔFnII) (SEQ ID NO:6) (Homo sapiens, UniProt P14780, DEL216-390); assay: ThermoFluor binding assay with proMMP9(20-445;ΔFnII); conditions: pH 7.0
# T1 construct: start methionine (N); made in house; host or cells: E. coli BL21(DE3) RIL
# T1 sequence (P14780 with tags, fused parts or gaps DEL216-390): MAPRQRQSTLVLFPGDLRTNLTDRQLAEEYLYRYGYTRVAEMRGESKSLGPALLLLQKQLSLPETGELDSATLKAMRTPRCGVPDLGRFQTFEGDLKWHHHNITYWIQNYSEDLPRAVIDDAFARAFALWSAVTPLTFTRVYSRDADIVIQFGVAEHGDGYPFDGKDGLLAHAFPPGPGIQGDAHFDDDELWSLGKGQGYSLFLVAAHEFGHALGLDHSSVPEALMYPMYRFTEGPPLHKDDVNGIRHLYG
# Method in brief: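 proMMP9(20-445;ΔFnII) at 2.8 μM with 50 μM 1,8-ANS in 50 mM HEPES pH 7.0, 100 mM NaCl, 0.001% Tween-20, 2.5 mM MgCl2, 300 μM CaCl2; compounds serially diluted in DMSO. Heated 40–90 °C at 1 °C/min, fluorescence read at 500±25 nm. Tm fit by standard equations; binding fit using DSC/TF-derived thermodynamic parameters.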
# [2] = target: T2, full-length proMMP9(1-707) (SEQ ID NO:1) (Homo sapiens, UniProt P14780, R574P); assay: proMMP9/MMP3 P126 Activation Assay; assay type: biochemical; conditions: 20 nM proMMP9, 20 nM MMP3, 80 min 37° C.
# T2 construct: made in house; host or cells: HEK293 (proMMP9, secreted); E. coli (MMP3)
# T2 sequence (P14780 20-707 R574P): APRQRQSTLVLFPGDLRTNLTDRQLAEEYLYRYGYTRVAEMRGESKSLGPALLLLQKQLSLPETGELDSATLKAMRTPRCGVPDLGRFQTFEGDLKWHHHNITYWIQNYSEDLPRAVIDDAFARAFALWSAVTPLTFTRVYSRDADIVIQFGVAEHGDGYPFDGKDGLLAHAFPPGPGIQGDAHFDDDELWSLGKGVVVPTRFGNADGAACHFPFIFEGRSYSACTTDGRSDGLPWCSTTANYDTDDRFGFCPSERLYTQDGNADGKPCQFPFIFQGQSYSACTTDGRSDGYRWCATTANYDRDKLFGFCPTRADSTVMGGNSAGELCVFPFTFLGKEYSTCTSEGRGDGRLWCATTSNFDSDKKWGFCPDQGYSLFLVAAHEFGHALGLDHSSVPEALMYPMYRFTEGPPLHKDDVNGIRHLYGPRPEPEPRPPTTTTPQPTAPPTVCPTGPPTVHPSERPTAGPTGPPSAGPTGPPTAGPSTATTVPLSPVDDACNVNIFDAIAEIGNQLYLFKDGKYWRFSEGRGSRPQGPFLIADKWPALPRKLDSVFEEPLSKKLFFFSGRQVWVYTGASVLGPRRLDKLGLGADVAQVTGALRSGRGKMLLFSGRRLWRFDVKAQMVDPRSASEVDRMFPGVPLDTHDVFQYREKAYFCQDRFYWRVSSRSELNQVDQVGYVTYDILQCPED
# Method: The reaction volume was 50 μL. […] Reactivity of residual MMP3 towards P-126 substrate was minimal under these conditions.
# [3] = target: proMMP13(1-268) (SEQ ID NO:7) (Homo sapiens, UniProt P45452); assay: ThermoFluor binding assay with proMMP13(1-268); design: 6xHis (C); made in house; conditions: pH 7.0
# Method in brief: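 Thermal shift binding with 3.5 μM protein and 25 μM 1,8-ANS in 50 mM HEPES pH 7.0, 100 mM NaCl, 0.001% Tween-20, 2.5 mM MgCl2, 300 μM CaCl2. Samples were heated 40 to 90 °C at 1 °C/min, fluorescence read at 500 nm. Tm shifts across an 11-point DMSO dilution series were fitted with DSC-derived thermodynamic parameters.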
# [4] = target: T3, proMMP9(67-444;ΔFnII) (SEQ ID NO:5) (Homo sapiens, UniProt P14780, DEL216-390); assay: ThermoFluor binding assay with proMMP9(67-444;ΔFnII); conditions: pH 7.0
# T3 construct: start methionine (N); made in house; host or cells: E. coli BL21(DE3) RIL
# T3 sequence (P14780 with tags, fused parts or gaps DEL216-390): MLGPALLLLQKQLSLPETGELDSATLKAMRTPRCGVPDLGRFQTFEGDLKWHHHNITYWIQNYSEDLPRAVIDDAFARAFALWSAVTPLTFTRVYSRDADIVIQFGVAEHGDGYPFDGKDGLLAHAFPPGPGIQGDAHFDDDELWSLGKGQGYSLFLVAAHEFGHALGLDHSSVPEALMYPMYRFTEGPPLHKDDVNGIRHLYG
# Method in brief: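 Thermal shift binding with 3.5 μM proMMP9(67-444;ΔFnII) and 50 μM 1,8-ANS in 50 mM HEPES pH 7.0, 100 mM NaCl, 2.5 mM MgCl2, 300 μM CaCl2, 0.001% Tween-20, with serially diluted compound. Heated 40 to 90° C at 1° C/min; fluorescence-derived Tm fitted using DSC/ThermoFluor thermodynamic parameters.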
Compound,Kd [1] [nM],IC50 [2] [nM],Kd [3] [nM],Kd [4] [nM]
"COc1ccc(C#N)cc1Nc1nc(-c2sc(N)nc2C)cs1 [Example 40, 3-(2′-Amino-4′-methyl-[4,5′]bithiazolyl-2-ylamino)-4-methoxy-benzonitrile.HBr]",990,900,1500,310
"CCOc1ccc(C(N)=O)cc1Nc1nc(-c2sc(C(=O)N3CCCN(C(C)C)CC3)nc2C)cs1 [Example 116, 4-Ethoxy-3-[2′-(4-isopropyl-[1,4]diazepane-1-carbonyl)-4′-methyl-[4,5]bithiazolyl-2-ylamino]-benzamide.TFA]",2700,500,6700,1400
"Cc1nc(C(=O)N2CCN(C)CC2)sc1-c1csc(Nc2cc(C(N)=O)ccc2OC(C)C)n1 [Example 101, 4-Isopropoxy-3-[4′-methyl-2′-(4-methyl-piperazine-1-carbonyl)-[4,5′]bithiazolyl-2-ylamino]-benzamide.TFA]",290,170,510,1100
"Cc1nc(C)c(-c2csc(Nc3cc(C(N)=O)ccc3OCC(C)C)n2)s1 [Example 28, 3-(2′,4′-Dimethyl-[4,5′]bithiazolyl-2-ylamino)-4-isobutoxy-benzamide]",11000,> 20000,56000,> 95000
"COc1ccc(C(=O)O)cc1Nc1nc(-c2sc(N)nc2C)cs1 [Example 55, 3-(2′-Amino-4′-methyl-[4,5′]bithiazolyl-2-ylamino)-4-methoxy-benzoic acid.HBr]",2500,740,9800,1700
"CCOc1ccc(C(N)=O)cc1Nc1nc(-c2sc(C(=O)N3CCN(C)CC3)nc2C)cs1 [Example 115, 4-Ethoxy-3-[4′-methyl-2′-(4-methyl-piperazine-1-carbonyl)-[4,5′]bithiazolyl-2-ylamino]-benzamide.TFA]",2800,880,6400,3800
"CCOc1ccc(C(N)=O)cc1Nc1nc(-c2sc(C(=O)NC3CCN(C(C)C)CC3)nc2C)cs1 [Example 122, 2-(5-Carbamoyl-2-ethoxy-phenylamino)-4′-methyl-[4,5′]bithiazolyl-2′-carboxylic acid (1-isopropyl-piperidin-4-yl)-amide.TFA]",830,250,4900,670
"CCOc1ccc(C(N)=O)cc1Nc1nc(-c2sc(C)nc2C)cs1 [Example 6, 3-(2′,4′-Dimethyl-[4,5′]bithiazolyl-2-ylamino)-4-ethoxy-benzamide.TFA]",200,160,2000,580
"COc1ccc(-c2cccnc2)cc1Nc1nc(-c2sc(C)nc2C)cs1 [Example 141, (2′,4′-Dimethyl-[4,5′]bithiazolyl-2-yl)-(2-methoxy-5-pyridin-3-yl-phenyl)-amine]",> 95000,~12000,4300,15000
"Cc1nc(C(=O)O)sc1-c1csc(Nc2cc(C(N)=O)ccc2OC(C)C)n1 [Example 100, 2-(5-Carbamoyl-2-isopropoxy-phenylamino)-4′-methyl-[4,5′]bithiazolyl-2′-carboxylic acid]",760,220,1400,320
"CCOc1ccc(C(=O)O)cc1Nc1nc(-c2sc(C)nc2C)cs1 [Example 47, 3-(2′,4′-Dimethyl-[4,5′]bithiazolyl-2-ylamino)-4-ethoxy-benzoic acid.HBr]",1800,310,2400,680
"CCS(=O)(=O)c1ccc(OC)c(Nc2nc(-c3sc(C)nc3C)cs2)c1 [Example 50, (2′,4′-Dimethyl-[4,5′]bithiazolyl-2-yl)-(5-ethanesulfonyl-2-methoxy-phenyl)-amine.TFA]",1300,4100,2600,2600
"Cc1nc(CN2CCN(C)CC2)sc1-c1csc(Nc2cc(C(N)=O)ccc2OC(C)C)n1 [Example 131, 4-Isopropoxy-3-[4′-methyl-2′-(4-methyl-piperazin-1-ylmethyl)-[4,5′]bithiazolyl-2-ylamino]-benzamide.TFA]",770,730,5600,3300
"CCS(=O)(=O)c1ccc(OC)c(Nc2nc(-c3sc(NC(C)=O)nc3C)cs2)c1 [Example 49, N-[2-(5-Ethanesulfonyl-2-methoxy-phenylamino)-4′-methyl-[4,5]bithiazolyl-2′-yl]-acetamide.TFA]",4100,3000,6100,2500
"COC(=O)c1ccc(OC)c(Nc2nc(-c3sc(N)nc3C)cs2)c1 [Example 86, 3-(2′-Amino-4′-methyl-[4,5′]bithiazolyl-2-ylamino)-4-methoxy-benzoic acid methyl ester TFA]",1200,610,3400,200
"Cc1nc(CN2CCOCC2)sc1-c1csc(Nc2cc(C(N)=O)ccc2OC(C)C)n1 [Example 124, 4-Isopropoxy-3-(4′-methyl-2′-morpholin-4-ylmethyl-[4,5′]bithiazolyl-2-ylamino)-benzamide.TFA]",650,670,6100,3700
"COc1ccc([N+](=O)[O-])cc1Nc1nc(-c2sc(NC(C)=O)nc2C)cs1 [Example 68, N-[2-(2-Methoxy-5-nitro-phenylamino)-4′-methyl-[4,5′]bithiazolyl-2′-yl]-acetamide.TFA]",320,97,8400,550
"Cc1nc(C)c(-c2nc(Nc3cc(S(N)(=O)=O)ccc3OC(C)C)sc2F)s1 [Example 62, 3-(5-Fluoro-2′,4′-dimethyl-[4,5′]bithiazolyl-2-ylamino)-4-isopropoxy-benzenesulfonamide.TFA]",300,1500,160,670
"CCOC(=O)c1nc(C)c(-c2csc(Nc3cc(C(N)=O)ccc3OC(C)C)n2)s1 [Example 99, 2-(5-carbamoyl-2-isopropoxy-phenylamino)-4′-methyl-[4,5′]bithiazolyl-2′-carboxylic acid ethyl esterHBr]",270,590,2400,1100
"COc1ccc(N)cc1Nc1nc(-c2sc(NC(C)=O)nc2C)cs1 [Example 69, N-[2-(5-Amino-2-methoxy-phenylamino)-4′-methyl-[4,5′]bithiazolyl-2′-yl]-acetamide]",4800,1400,25000,1100
"COc1cc(C)c(C(N)=O)cc1Nc1nc(-c2sc(C)nc2C)cs1 [Example 36, 5-(2′,4′-Dimethyl-[4,5′]bithiazolyl-2-ylamino)-4-methoxy-2-methyl-benzamide.TFA]",850,670,11000,27000
"Cc1nc(C(=O)N2CCN(c3ccc(C(F)(F)F)cn3)CC2)sc1-c1csc(Nc2cc(C(N)=O)ccc2OC(C)C)n1 [Example 109, 4-Isopropoxy-3-{4′-methyl-2′-[4-(5-trifluoromethyl-pyridin-2-yl)-piperazine-1-carbonyl]-[4,5′]bithiazolyl-2-ylamino}-benzamide.TFA]",3800,5700,> 95000,> 95000
"CCOc1ccc(C(=O)O)cc1Nc1nc(-c2sc(N)nc2C)cs1 [Example 46, 3-(2′-Amino-4′-methyl-[4,5′]bithiazolyl-2-ylamino)-4-ethoxy-benzoic acid.HBr]",1400,1100,5500,1200
"CC(C)Oc1ccc(C(N)=O)cc1Nc1nc(-c2sc(N)nc2C(F)(F)F)cs1 [Example 150, 3-(2′-Amino-4′-trifluoromethyl-[4,5′]bithiazolyl-2-ylamino)-4-isopropoxy-benzamide]",160,1200,220,1300
